The values that follow come from ChEMBL document CHEMBL1201862, “PubChem BioAssay data set” (2004).

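Interpolation was linear, between the two tested concentrations surrounding the appropriate level; five concentrations were tested over 48 hours in 96-well plates. The concentration for 50% growth inhibition is given as GI50.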 Calls of active or inactive are those of the source. Cut-off read from the data, not from the text of the source: active = GI50 up to about 1.1 µM and inactive = higher. Where only a bound is given, the exact number is not on record here.

Assay in all cases: inhibition of tumour cell growth, NCI panel, 48 h
Experiment [1] concerns HL-60.
For experiment [2], the system named is NCI-H460.
For experiment [3], the system named is SR.
Experiment [4] concerns SK-MEL-28.
The test system of experiment [5] is SNB-19.
Experiment [6] concerns UACC-257.
Experiment [7] has as its system HOP-62.
Experiment [8] concerns LOX IMVI.
Experiment [9] concerns NCI-H522.
Experiment [10] has as its system K562.
For experiment [11], the system named is SK-OV-3.
In experiment [12] the test system is NCI-H23.
Experiment [13] relates to NCI-H226.
Experiment [14] has as its system HCC 2998.
The test system of experiment [15] is HCT-15.
The test system of experiment [16] is CAKI-1.
Experiment [17] concerns TK-10.
The subject of experiment [18] is OVCAR-3.

As for `CN(C)c1ccc(C(=C2C=CC(=[N+](C)C)C=C2)c2ccc(N(C)C)cc2)cc1` [GENTIAN VIOLET], the GI50 is 0.04 µM (active) in experiment [1]; 0.0574 µM (active) in experiment [2]; 0.211 µM (active) in experiment [3]; 0.53 µM (active) in experiment [4]; 0.347 µM (active) in experiment [5]; 0.176 µM (active) in experiment [6]. Also, the GI50 is 0.375 µM (active) in experiment [7]; 0.0379 µM (active) in [8]; 0.298 µM (active) in experiment [9]; 0.0327 µM (active) in experiment [10]; 0.224 µM (active) in experiment [11]; 0.0594 µM (active) in [12]. For the same molecule, the GI50 in experiment [13] is 0.179 µM (active); in experiment [14] it was 0.216 µM (active); in experiment [15], 0.334 µM; in experiment [16], 0.34 µM (active).

With `Oc1ccc2c(O)cc(-c3ccccc3)nc2c1`, the GI50 in [17] was 40.7 µM (inactive); in [1] it was 21.5 µM (inactive); in experiment [2], 17.8 µM (inactive); in experiment [3] it was 38.1 µM (inactive); in experiment [4], 38.3 µM (inactive); in experiment [5], 32.4 µM (inactive). The GI50 in [6] was 21.7 µM (inactive); in experiment [7], 28.2 µM (inactive); in [8], 17.5 µM (inactive); in [9], 27 µM (inactive); in experiment [10] it was 19.2 µM (inactive); in experiment [11] it was 28.4 µM (inactive). In addition, the GI50 was 36.4 µM (inactive) in experiment [12]; 65.3 µM (inactive) in experiment [13]; 34 µM (inactive) in [14]; 15.8 µM in [15]; 24.4 µM (inactive) in experiment [16].

Turning to `C=C1C(=O)OC2CC3(C)C=CC(=O)C(=C)C3CC12` (stereo unspecified), the GI50 in [17] is 2.15 µM (inactive); in [1], 0.769 µM (active); in experiment [2] it was 2.59 µM (inactive); in experiment [3], 0.938 µM (active); in experiment [4], 1.77 µM (inactive); in experiment [5], 8.55 µM (inactive). The GI50 in experiment [6] is 1.64 µM (inactive); in [7] it was 14.7 µM (inactive); in experiment [8], 0.516 µM (active); in [9] it was 0.47 µM (active); in experiment [10] it was 1.71 µM (inactive); in experiment [11], 20.8 µM (inactive). Besides, the GI50 in experiment [12] is 1.69 µM (inactive); in [13], 12.1 µM (inactive); in experiment [14], 2.6 µM (inactive); in experiment [15], 1.71 µM; in experiment [18], 2.32 µM (inactive); in [16], 1.36 µM (inactive).

For `CCOP(=O)(OCC)C(C(=O)OC)C(=O)C(=O)Nc1cccc([N+](=O)[O-])c1` (stereo unspecified), the GI50 in experiment [17], in [1], in experiment [2], in experiment [3], in [4] and in [5] was > 100 µM (inactive) in each case. For the same molecule, the GI50 in experiment [6], in experiment [7], in [8], in [9], in experiment [10] and in experiment [11] was > 100 µM (inactive) in each case. The GI50 was > 100 µM (inactive) in [12]; > 100 µM (inactive) in experiment [13]; > 100 µM (inactive) in [14]; above 100 µM in experiment [15]; > 100 µM (inactive) in experiment [18]; > 100 µM (inactive) in experiment [16].

Regarding `COC(=O)C1C(/C=C/c2ccoc2)ON2CCC[C@@H]12` (stereo partly specified), the GI50 in experiment [17], in experiment [1], in [2], in experiment [3], in [4] and in experiment [5] was > 100 µM (inactive) in each case. The GI50 in [6], in experiment [7], in experiment [8], in experiment [9], in [12] and in [13] was > 100 µM (inactive) in each case. The GI50 in experiment [14], in experiment [18] and in experiment [16] was > 100 µM (inactive) each time.

Turning to `Cc1ccc([N+](=O)[O-])cc1NC(=O)C(=O)Cc1nc2ccc(C(=O)c3ccccc3)cc2nc1O`, the GI50 in experiment [17] was > 100 µM (inactive); in experiment [1], > 100 µM (inactive); in experiment [2], > 100 µM (inactive); in experiment [3] it was 60 µM (inactive); in [4], > 100 µM (inactive); in experiment [5], > 100 µM (inactive). Further, the GI50 in [6], in [7], in experiment [8], in experiment [9], in [11] and in experiment [12] was > 100 µM (inactive) in each case. The GI50 is > 100 µM (inactive) in experiment [13]; > 100 µM (inactive) in experiment [14]; above 100 µM in experiment [15]; > 100 µM (inactive) in experiment [18]; > 100 µM (inactive) in [16].

In the case of `Nn1c(CCCl)nc2c(Br)cc(Br)cc2c1=O`, the GI50 in experiment [17] is 34.3 µM (inactive); in experiment [1] it was 2.77 µM (inactive); in experiment [2], 25.3 µM (inactive); in experiment [3], 20.3 µM (inactive); in [4] it was 37.2 µM (inactive); in experiment [5], 51.9 µM (inactive). In addition, the GI50 is 34.9 µM (inactive) in [6]; 26.8 µM (inactive) in experiment [7]; 25.5 µM (inactive) in experiment [8]; 15.9 µM (inactive) in experiment [9]; 13.2 µM (inactive) in experiment [10]; 33.1 µM (inactive) in experiment [11]. Moreover, the GI50 is 24 µM (inactive) in [12]; 28.5 µM (inactive) in [13]; 40.2 µM (inactive) in experiment [14]; 22.1 µM in experiment [15]; 9.62 µM (inactive) in experiment [18]; 30.7 µM (inactive) in experiment [16].

Consider `CN(C)c1ccc(C(=C(c2ccc(N(C)C)cc2)c2ccc(N(C)C)cc2)c2ccc(N(C)C)cc2)cc1`, for which the GI50 in experiment [17] was 16 µM (inactive); in experiment [1], 5.36 µM (inactive); in experiment [2], 15.8 µM (inactive); in [3], 9.04 µM (inactive); in experiment [4], 14.3 µM (inactive); in experiment [5], 13.8 µM (inactive). For the same molecule, the GI50 in experiment [6] was 17.3 µM (inactive); in [7] it was 39.5 µM (inactive); in experiment [8], 13.5 µM (inactive); in experiment [9] it was 0.301 µM (active); in experiment [10] it was 8.09 µM (inactive); in experiment [11], 20.8 µM (inactive). For the same molecule, the GI50 is 17 µM (inactive) in experiment [12]; 19.8 µM (inactive) in experiment [13]; 16 µM (inactive) in experiment [14]; 14.4 µM in [15]; 0.31 µM (active) in experiment [18]; 12.4 µM (inactive) in experiment [16].

Take `Cc1ccc(S(=O)OC2C3CC4CC(C3)CC2C4)cc1` (stereo unspecified): the GI50 in experiment [17], in experiment [1], in [2], in [3], in [4] and in experiment [5] was > 100 µM (inactive) each time. Besides, the GI50 in [6], in experiment [7], in experiment [8], in [9], in [10] and in [11] was > 100 µM (inactive) throughout. Besides, the GI50 in [12] is > 100 µM (inactive); in experiment [13], > 100 µM (inactive); in experiment [14] it was > 100 µM (inactive); in [15], above 100 µM; in experiment [18], > 100 µM (inactive); in [16] it was > 100 µM (inactive).

In the case of `C[n+]1c2n(c3nc(N)[nH]c(=O)c31)C1OC(C2)C(O)C1O` (stereo unspecified), the GI50 in experiment [17], in experiment [1], in experiment [3], in experiment [4], in [5] and in experiment [6] was > 100 µM (inactive) each time. The GI50 in [7], in experiment [8], in [9], in experiment [10], in experiment [11] and in experiment [12] was > 100 µM (inactive) throughout. Moreover, the GI50 in [13], in [14], in [18] and in experiment [16] was > 100 µM (inactive) throughout.

For `COc1ccccc1NC(=O)CC(=O)N/N=C/c1ccc(N(CCC#N)S(=O)(=O)c2ccccc2)cc1`, the GI50 in [17], in [1], in [2], in experiment [3], in experiment [4] and in [5] was > 100 µM (inactive) in each case. The GI50 in experiment [6], in [7], in experiment [8], in [9], in experiment [10] and in experiment [12] was > 100 µM (inactive) each time. Moreover, the GI50 in [13] is > 100 µM (inactive); in experiment [14], > 100 µM (inactive); in experiment [15], above 100 µM; in [18] it was > 100 µM (inactive); in [16] it was > 100 µM (inactive).

For `COC(=O)C1=Cc2c(cc(OC)c(OC)c2OC)[C@H](c2ccc(OC)c(OC)c2OC)C1C(=O)OC` (stereo partly specified), the GI50 in experiment [17] was > 100 µM (inactive); in [1], 54.6 µM (inactive); in experiment [2] it was > 100 µM (inactive); in experiment [3] it was 46.7 µM (inactive); in experiment [4], > 100 µM (inactive); in experiment [5] it was > 100 µM (inactive). The GI50 in experiment [6] is > 100 µM (inactive); in experiment [7], > 100 µM (inactive); in experiment [8], > 100 µM (inactive); in [9], 89.9 µM (inactive); in experiment [10], > 100 µM (inactive); in experiment [11], > 100 µM (inactive). Moreover, the GI50 is > 100 µM (inactive) in experiment [12]; > 100 µM (inactive) in [13]; > 100 µM (inactive) in experiment [14]; 75 µM in experiment [15]; > 100 µM (inactive) in [18]; > 100 µM (inactive) in experiment [16].
